Measurements taken from article PMC12396409, “Screening and hit evaluation of a microbial metabolite library against the pathogenic Plasmodium falciparum and Toxoplasma gondii parasites” (International Journal for Parasitology: Drugs and Drug …, 2025).
Read-outs that look alike come from different tables or passages of the source. Where a SMILES comes first, the peptide text is derived from it. Bridges are numbered along the chain shown (N, C = ends). [ ]: non-standard residue; d: D form. The star is where a group is joined. Ileψ(thiazoline)Cys = CC[C@H](C)[C@H](N)C1=N[C@H](C(=O)*)CS1; dOrn = NCCC[C@@H](N)C(=O)O

Legend:
[1] = test system: T. gondii RH strain (RH-Tub-eYFP) tachyzoites; test: microbe, parasite or virus in culture; assay type: cell-based, Toxoplasma gondii; conditions: 72 h, 72 h; for percent parasite growth at 2 µg/mL: Toxoplasma gondii
[2] = test system: P. falciparum 3D7 parasites; test: P. falciparum growth inhibition assay, 2-cycle (120 h treatment), delayed-death screen and dose-response; assay type: cell-based, Plasmodium falciparum; conditions: for activity at 2 µg/mL: Plasmodium falciparum
[3] = test system: P. falciparum 3D7 parasites; test: P. falciparum growth inhibition assay, 1-cycle (72 h treatment), SYBR DNA staining (library screen at 2 μg/mL and dose-response); assay type: cell-based, Plasmodium falciparum; conditions: for activity at 2 µg/mL: Plasmodium falciparum
[4] = library screen at 2 μg/mL, % growth, replicate 1, read-out: Tg_72h_%Growth_Rep1
[5] = library screen at 2 μg/mL, % growth, replicate 2, read-out: Tg_72h_%Growth_Rep2
[6] = 3D7, library screen at 2 μg/mL, 120 h, % growth, replicate 1, read-out: Pf_120h_%Growth_Rep1
[7] = 3D7, library screen at 2 μg/mL, 120 h, % growth, replicate 2, read-out: Pf_120h_%Growth_Rep2
[8] = 3D7, library screen at 2 μg/mL, 72 h, % growth, replicate 1, read-out: Pf_72h_%Growth_Rep1
[9] = 3D7, library screen at 2 μg/mL, 72 h, % growth, replicate 2, read-out: Pf_72h_%Growth_Rep2
[10] = library screen at 2 μg/mL, % growth, replicate 1
[11] = library screen at 2 μg/mL, % growth, replicate 2
[12] = library screen at 2 μg/mL, 120 h, % growth, replicate 1
[13] = library screen at 2 μg/mL, 120 h, % growth, replicate 2
[14] = library screen at 2 μg/mL, 72 h, % growth, replicate 1
[15] = library screen at 2 μg/mL, 72 h, % growth, replicate 2
[16] = T. gondii, parasite screen at 2 μg/mL, % growth, replicate 1
[17] = T. gondii, parasite screen at 2 μg/mL, % growth, replicate 2
[18] = P. falciparum 3D7, 120 h, parasite screen at 2 μg/mL, % growth, replicate 1
[19] = P. falciparum 3D7, 120 h, parasite screen at 2 μg/mL, % growth, replicate 2
[20] = P. falciparum 3D7, 72 h, parasite screen at 2 μg/mL, % growth, replicate 1
[21] = P. falciparum 3D7, 72 h, parasite screen at 2 μg/mL, % growth, replicate 2
[22] = T. gondii, parasite screen 2 μg/mL, % growth, replicate 1
[23] = T. gondii, parasite screen 2 μg/mL, % growth, replicate 2
[24] = P. falciparum, 120 h, parasite screen 2 μg/mL, % growth, replicate 1
[25] = P. falciparum, 120 h, parasite screen 2 μg/mL, % growth, replicate 2
[26] = P. falciparum, 72 h, parasite screen 2 μg/mL, % growth, replicate 1
[27] = P. falciparum, 72 h, parasite screen 2 μg/mL, % growth, replicate 2

## CC[C@H](C)[C@H](N)C1=N[C@H](C(=O)N[C@@H](CC(C)C)C(=O)N[C@H](CCC(=O)O)C(=O)N[C@H](C(=O)N[C@H]2CCCCNC(=O)[C@H](CC(N)=O)NC(=O)[C@@H](CC(=O)O)NC(=O)[C@H](Cc3cnc[nH]3)NC(=O)[C@@H](Cc3ccccc3)NC(=O)[C@H]([C@@H](C)CC)NC(=O)[C@@H](CCCN)NC2=O)[C@@H](C)CC)CS1 [Bacitracin A] ({Ileψ(thiazoline)Cys}-L[dE]IK[dOrn]I[dF]H[dD]N; lactam 4-C)
[1]; [4]
  percent parasite growth at 2 µg/mL: 81.4%
[1]; [5]
  percent parasite growth at 2 µg/mL: 89.8%
[2]; [6]
  activity at 2 µg/mL: 59.9%
[2]; [7]
  activity at 2 µg/mL: 94.6%
[3]; [8]
  activity at 2 µg/mL: 27.2%
[3]; [9]
  activity at 2 µg/mL: 89.3%

## CCCC[C@@H](C)[C@@H](OC(=O)C[C@@H](CC(=O)O)C(=O)O)[C@H](C[C@@H](C)C[C@H](O)CCCC[C@@H](O)C[C@H](O)[C@H](C)N)OC(=O)C[C@@H](CC(=O)O)C(=O)O [Fumonisin B1]
[1]; [10]
  Tg_72h_%Growth_Rep1: 135.48%
[1]; [11]
  Tg_72h_%Growth_Rep2: 98.34%
[2]; [12]
  Pf_120h_%Growth_Rep1: 97.02%
[2]; [13]
  Pf_120h_%Growth_Rep2: 120.58%
[3]; [14]
  Pf_72h_%Growth_Rep1: 90.20%
[3]; [15]
  Pf_72h_%Growth_Rep2: 119.39%

## COC[C@H]1OC(=O)c2coc3c2[C@@]1(C)C1=C(C3=O)[C@@H]2CCC(=O)[C@@]2(C)C[C@H]1OC(C)=O [Wortmannin]
[1]; T. gondii, screen at 2 μg/mL, replicate 1, read-out: Tg_72h_%Growth_Rep1
  percent parasite growth at 2 µg/mL: 97.3%
[1]; T. gondii, screen at 2 μg/mL, replicate 2, read-out: Tg_72h_%Growth_Rep2
  percent parasite growth at 2 µg/mL: 76.4%
[2]; 3D7, P. falciparum, 120 h, screen at 2 μg/mL, replicate 1, read-out: Pf_120h_%Growth_Rep1
  activity at 2 µg/mL: 109%
[2]; 3D7, P. falciparum, 120 h, screen at 2 μg/mL, replicate 2, read-out: Pf_120h_%Growth_Rep2
  activity at 2 µg/mL: 96.5%
[3]; 3D7, P. falciparum, 72 h, screen at 2 μg/mL, replicate 1, read-out: Pf_72h_%Growth_Rep1
  activity at 2 µg/mL: 88.8%
[3]; 3D7, P. falciparum, 72 h, screen at 2 μg/mL, replicate 2, read-out: Pf_72h_%Growth_Rep2
  activity at 2 µg/mL: 119%

## O=C1N[C@@H](Cc2c[nH]c3ccccc23)C(=O)N[C@H]1Cc1c[nH]c2ccccc12 [Cyclo(L-Trp-L-Trp)]
[1]; T. gondii, screen at 2 μg/mL, replicate 1
  Tg_72h_%Growth_Rep1: 161.12%
[1]; T. gondii, screen at 2 μg/mL, replicate 2
  Tg_72h_%Growth_Rep2: 99.00%
[2]; P. falciparum, 120 h, screen at 2 μg/mL, replicate 1
  Pf_120h_%Growth_Rep1: 96.17%
[2]; P. falciparum, 120 h, screen at 2 μg/mL, replicate 2
  Pf_120h_%Growth_Rep2: 91.69%
[3]; P. falciparum, 72 h, screen at 2 μg/mL, replicate 1
  Pf_72h_%Growth_Rep1: 85.34%
[3]; P. falciparum, 72 h, screen at 2 μg/mL, replicate 2
  Pf_72h_%Growth_Rep2: 84.68%

## CCC1(C2OC(C3OC(O)(CO)C(C)CC3C)CC2C)CCC(C2(C)CCC3(CC(O)C(C)C(C(C)C(OC)C(C)C(=O)O)O3)O2)O1 (stereo not drawn) [BIA-M1303]
[1]; [16]
  Tg_72h_%Growth_Rep1: 1.84%
[1]; [17]
  Tg_72h_%Growth_Rep2: 2.05%
[2]; [18]
  Pf_120h_%Growth_Rep1: 3.05%
[2]; [19]
  Pf_120h_%Growth_Rep2: 14.66%
[3]; [20]
  Pf_72h_%Growth_Rep1: 1.29%
[3]; [21]
  Pf_72h_%Growth_Rep2: -3.52%

## CC(=O)O[C@@H]1C[C@]2(C)[C@@]3(CO)[C@H](O)C(=O)C(C)=C[C@H]3O[C@H]1[C@@]21CO1 [Acetyldeoxynivalenol, 3-]
[1]; [10]
  Tg_72h_%Growth_Rep1: 4.23%
[1]; [11]
  Tg_72h_%Growth_Rep2: 6.65%
[2]; [12]
  Pf_120h_%Growth_Rep1: 14.50%
[2]; [13]
  Pf_120h_%Growth_Rep2: 5.88%
[3]; [14]
  Pf_72h_%Growth_Rep1: 11.16%
[3]; [15]
  Pf_72h_%Growth_Rep2: 9.81%

## Cc1cc(O)c2c(c1)C(=O)C13C(=C2O)C(=O)C2C(O)C1C1C(O)C3C(=O)C3=C(O)c4c(O)cc(C)cc4C(=O)C321 (stereo not drawn) [Rugulosin - form]
[1]; [22]
  Tg_72h_%Growth_Rep1: 9.47%
[1]; [23]
  Tg_72h_%Growth_Rep2: 14.48%
[2]; [24]
  Pf_120h_%Growth_Rep1: 0.79%
[2]; [25]
  Pf_120h_%Growth_Rep2: 8.22%
[3]; [26]
  Pf_72h_%Growth_Rep1: 4.91%
[3]; [27]
  Pf_72h_%Growth_Rep2: 2.27%

## COc1ccc2c(c1)C(=O)NC(Cc1ccccc1)C(=O)NCCC(=O)N1CCCC1C(=O)N2 (stereo not drawn) [Aspercolorin]
[1]; [10]
  Tg_72h_%Growth_Rep1: 77.01%
[1]; [11]
  Tg_72h_%Growth_Rep2: 95.41%
[2]; [12]
  Pf_120h_%Growth_Rep1: 146.59%
[2]; [13]
  Pf_120h_%Growth_Rep2: 102.81%
[3]; [14]
  Pf_72h_%Growth_Rep1: 96.39%
[3]; [15]
  Pf_72h_%Growth_Rep2: 82.46%

## CC[C@H]1OC(=O)[C@H](C)[C@@H](O[C@H]2C[C@@](C)(OC)[C@@H](O)[C@H](C)O2)[C@H](C)[C@@H](O[C@@H]2O[C@H](C)C[C@H](N(C)C)[C@H]2O)[C@](C)(O)C[C@@H](C)C(=O)[C@H](C)[C@@H](O)[C@]1(C)O [Erythromycin A]
[1]; [10]
  Tg_72h_%Growth_Rep1: 29.44%
[1]; [11]
  Tg_72h_%Growth_Rep2: 44.08%
[2]; [12]
  Pf_120h_%Growth_Rep1: 83.81%
[2]; [13]
  Pf_120h_%Growth_Rep2: 89.66%
[3]; [14]
  Pf_72h_%Growth_Rep1: 79.99%
[3]; [15]
  Pf_72h_%Growth_Rep2: 105.49%

## CC(C)c1ncc(Cc2ccccc2)[nH]c1=O [Aureusimine B]
[1]; [10]
  Tg_72h_%Growth_Rep1: 82.28%
[1]; [11]
  Tg_72h_%Growth_Rep2: 99.21%
[2]; [12]
  Pf_120h_%Growth_Rep1: 140.97%
[2]; [13]
  Pf_120h_%Growth_Rep2: 94.84%
[3]; [14]
  Pf_72h_%Growth_Rep1: 102.22%
[3]; [15]
  Pf_72h_%Growth_Rep2: 85.03%

## COC1=C(N)C(=O)c2nc(-c3nc(C(=O)O)c(C)c(-c4ccc(OC)c(OC)c4O)c3N)ccc2C1=O [Streptonigrin]
[1]; T. gondii, parasite screen 2 μg/mL, % growth, replicate 1, read-out: Tg_72h_%Growth_Rep1
  percent parasite growth at 2 µg/mL: 3.6%
[1]; T. gondii, parasite screen 2 μg/mL, % growth, replicate 2, read-out: Tg_72h_%Growth_Rep2
  percent parasite growth at 2 µg/mL: 2.59%
[2]; 3D7, 120 h, P. falciparum, 120 h, parasite screen 2 μg/mL, % growth, replicate 1, read-out: Pf_120h_%Growth_Rep1
  activity at 2 µg/mL: 43.2%
[2]; 3D7, 120 h, P. falciparum, 120 h, parasite screen 2 μg/mL, % growth, replicate 2, read-out: Pf_120h_%Growth_Rep2
  activity at 2 µg/mL: 6.18%
[3]; 3D7, 72 h, P. falciparum, 72 h, parasite screen 2 μg/mL, % growth, replicate 1, read-out: Pf_72h_%Growth_Rep1
  activity at 2 µg/mL: 2.61%
[3]; 3D7, 72 h, P. falciparum, 72 h, parasite screen 2 μg/mL, % growth, replicate 2, read-out: Pf_72h_%Growth_Rep2
  activity at 2 µg/mL: -8.29%

## CCO[C@@H]1[C@@H](OC)[C@H](C)O[C@@H](O[C@H]2C[C@H]3[C@@H]4C=C5C(=O)[C@H](C)[C@@H](O[C@H]6CC[C@H](N(C)C)[C@@H](C)O6)CCC[C@H](CC)OC(=O)C[C@H]5[C@@H]4C=C(C)[C@@H]3C2)[C@@H]1OC [spinosyn L, 3'-Ethoxy-]
[1]; [22]
  Tg_72h_%Growth_Rep1: 142.09%
[1]; [23]
  Tg_72h_%Growth_Rep2: 79.71%
[2]; [24]
  Pf_120h_%Growth_Rep1: 13.87%
[2]; [25]
  Pf_120h_%Growth_Rep2: 7.84%
[3]; [26]
  Pf_72h_%Growth_Rep1: 10.02%
[3]; [27]
  Pf_72h_%Growth_Rep2: -2.72%

## COc1cc(O)c2c(c1)/C=C/C[C@H](O)[C@H](O)C(=O)/C=C/C[C@H](C)OC2=O [BIA-O1897]
[1]; [16]
  Tg_72h_%Growth_Rep1: 58.83%
[1]; [17]
  Tg_72h_%Growth_Rep2: 79.20%
[2]; [18]
  Pf_120h_%Growth_Rep1: 71.81%
[2]; [19]
  Pf_120h_%Growth_Rep2: 72.01%
[3]; [20]
  Pf_72h_%Growth_Rep1: 68.65%
[3]; [21]
  Pf_72h_%Growth_Rep2: 68.31%

## C=C(C)[C@@H]1CC[C@]2(C(=O)O)CC[C@]3(C)[C@H](CC[C@@H]4[C@@]5(C)CC[C@H](O)C(C)(C)[C@@H]5CC[C@]43C)[C@@H]12 [Betulinic acid]
[1]; [4]
  percent parasite growth at 2 µg/mL: 107%
[1]; [5]
  percent parasite growth at 2 µg/mL: 88%
[2]; [6]
  activity at 2 µg/mL: 70.3%
[2]; [7]
  activity at 2 µg/mL: 59.9%
[3]; [8]
  activity at 2 µg/mL: 73.8%
[3]; [9]
  activity at 2 µg/mL: 76.9%
